Laboratory results: patent US20240166652A1, “MODULATORS OF THE INTEGRATED STRESS PATHWAY” (Calico Life Sciences LLC, priority 2017, published 2024)

system: ATF4 luciferase reporter in HEK293T cells; assay: ATF4-Luc assay (ATF4 luciferase reporter, tunicamycin-treated HEK293T cells); type: cell-based, human; settings: Homo sapiens, HEK-293T; HEK293T cells carrying the ATF4 luciferase reporter, 1 μg/mL tunicamycin, 7 hours

First: O=C(COCc1ccc(Cl)cc1)NC12CC(NC(=O)COc3ccc(Cl)c(F)c3)(C1)C2 [Compound 130, 2-(4-chloro-3-fluorophenoxy)-N-(3-{2-[(4-chlorophenyl)methoxy]acetamido}-bicyclo[1.1.1]pentan-1-yl)acetamide]
Second: O=C(COCCc1cccc(Cl)c1)NC12CC(NC(=O)COc3ccc(Cl)c(F)c3)(C1)C2 [Compound 133, 2-(4-chloro-3-fluorophenoxy)-N-(3-{2-[2-(3-chlorophenyl)ethoxy]acetamido}-bicyclo[1.1.1]pentan-1-yl)acetamide]
The EC50 of the first is lower: 10 to 50 nM for the first, 50 to 250 nM for the second. The first is the more potent here.

First: CCOc1ccc(OCC(=O)NC23CCC(NC(=O)COc4ccc(Cl)c(F)c4)(CC2)[C@@H](O)C3)cc1 [Compound 464, 2-(4-chloro-3-fluorophenoxy)-N-{(2S)-4-[2-(4-ethoxyphenoxy)acetamido]-2-hydroxybicyclo[2.2.2]octan-1-yl}acetamide]
Second: Cc1cccc(OCC(=O)NC23CCC(NC(=O)COc4ccc(Cl)c(F)c4)(CC2)[C@@H](O)C3)c1 [Compound 467, 2-(4-chloro-3-fluorophenoxy)-N-{(2S)-2-hydroxy-4-[2-(3-methylphenoxy)acetamido]bicyclo[2.2.2]octan-1-yl}acetamide]
The EC50 of the first is higher: 10 to 50 nM for the first, < 10 nM for the second.

First: O=C(COc1ccc(Cl)c(F)c1)N[C@]12CC[C@](NC(=O)COc3ccc(Cl)c(F)c3)(C1)[C@@H](O)C2 (racemic) [Compound 585, rac-N,N′-[(1S,2S,4R)-2-hydroxybicyclo[2.2.1]heptane-1,4-diyl]bis[2-(4-chloro-3-fluorophenoxy)acetamide]]
Second: COCC1CC2(NC(=O)COc3ccc(Cl)c(F)c3)CCC1(NC(=O)COc1ccc(Cl)c(F)c1)CC2 (stereo not drawn) [Compound 716, N,N′-[2-(methoxymethyl)bicyclo[2.2.2]octane-1,4-diyl]bis[2-(4-chloro-3-fluorophenoxy)acetamide]]
The EC50 of the first is lower: < 10 nM for the first, 10 to 50 nM for the second. The first is the more potent here.

First: CN(C(=O)COc1ccc(C(F)(F)F)nc1)C12CCC(NC(=O)COc3ccc(Cl)c(F)c3)(CC1)C[C@@H]2O [Compound 377, N-{(2S)-4-[2-(4-chloro-3-fluorophenoxy)acetamido]-2-hydroxybicyclo[2.2.2]octan-1-yl}-N-methyl-2-{[6-(trifluoromethyl)pyridin-3-yl]oxy}acetamide]
Second: CN(C(=O)COc1ccc(Cl)c(F)c1)C12CCC(NC(=O)COc3ccc(Cl)c(F)c3)(CC1)[C@@H](O)C2 [Compound 444, 2-(4-chloro-3-fluorophenoxy)-N-{(3S)-4-[2-(4-chloro-3-fluorophenoxy)acetamido]-3-hydroxybicyclo[2.2.2]octan-1-yl}-N-methylacetamide]
The EC50 of the first is higher: 500 to 2000 nM for the first, 10 to 50 nM for the second.

First: O=C(COc1ccc(Cl)c(F)c1)NC12CCC(NC(=O)COc3ncn(-c4ccc(Cl)cc4)n3)(CC1)[C@@H](O)C2 [Compound 516, 2-(4-chloro-3-fluorophenoxy)-N-[(3S)-4-(2-{[1-(4-chlorophenyl)-1H-1,2,4-triazol-3-yl]oxy}acetamido)-3-hydroxybicyclo[2.2.2]octan-1-yl]acetamide]
Second: O=C(COc1ccc(Cl)cc1)NC12CCC(NC(=O)COc3ccc(F)cc3)(CC1)[C@@H](O)C2 [Compound 614, 2-(4-chlorophenoxy)-N-{(3S)-4-[2-(4-fluorophenoxy)acetamido]-3-hydroxybicyclo[2.2.2]octan-1-yl}acetamide]
The EC50 of the first is higher: > 2000 nM for the first, < 10 nM for the second.

Compared with `CS(=O)(=O)c1ccc(OCC(=O)NC23CCC(NC(=O)COc4ccc5c(c4)OC(F)(F)O5)(CC2)[C@@H](O)C3)cc1F` [Compound 766, 2-[(2,2-difluoro-2H-1,3-benzodioxol-5-yl)oxy]-N-[(2S)-4-{2-[3-fluoro-4-(methanesulfonyl)phenoxy]acetamido}-2-hydroxybicyclo[2.2.2]octan-1-yl]acetamide], `COc1ncc(OCC(=O)NC23CCC(NC(=O)COc4ccc5c(c4)OC(F)(F)O5)(CC2)[C@@H](O)C3)cn1` [Compound 632, 2-[(2,2-difluoro-2H-1,3-benzodioxol-5-yl)oxy]-N-[(2S)-2-hydroxy-4-{2-[(2-methoxypyrimidin-5-yl)oxy]acetamido}bicyclo[2.2.2]octan-1-yl]acetamide] is lower in EC50: 50 to 250 nM for the first, 10 to 50 nM for the second. The second is the more potent here.

`O=C(COc1ccc(F)c(C(F)(F)F)c1)NC12CCC(NC(=O)COc3ccc(F)c(F)c3)(CC1)[C@@H](O)C2` [Compound 845, 2-(3,4-difluorophenoxy)-N-[(2S)-4-{2-[4-fluoro-3-(trifluoromethyl)phenoxy]acetamido}-2-hydroxybicyclo[2.2.2]octan-1-yl]acetamide] and `O=C(COc1ccc(F)c(C(F)F)c1)NC12CCC(NC(=O)COc3ccc(F)c(F)c3)(CC1)[C@@H](O)C2` [Compound 775, 2-[3-(difluoromethyl)-4-fluorophenoxy]-N-{(3S)-4-[2-(3,4-difluorophenoxy)acetamido]-3-hydroxybicyclo[2.2.2]octan-1-yl}acetamide] cannot be ordered by EC50: < 10 nM for the first, < 10 nM for the second.

`O=C(COc1ccc(Cl)c(F)c1)NC12CC(NC(=O)COc3ccc4c(c3)OC(F)(F)O4)(C1)C2` [Compound 258, 2-(4-chloro-3-fluorophenoxy)-N-(3-{2-[(2,2-difluoro-2H-1,3-benzodioxol-5-yl)oxy]acetamido}bicyclo[1.1.1]pentan-1-yl)acetamide] and `O=C(COc1ccc(Cl)cc1)NC12CCC(NC(=O)COc3ccc4c(c3)OC(F)(F)O4)(CC1)CC2` [Compound 742, 2-(4-chlorophenoxy)-N-(4-{2-[(2,2-difluoro-2H-1,3-benzodioxol-5-yl)oxy]acetamido}bicyclo[2.2.2]octan-1-yl)acetamide] cannot be ordered by EC50: < 10 nM for the first, < 10 nM for the second.

First: Cc1cc(C)cc(OCC(=O)NC23CCC(NC(=O)COc4ccc(Cl)c(F)c4)(CC2)C[C@@H]3O)c1 [Compound 502, 2-(4-chloro-3-fluorophenoxy)-N-{(3S)-4-[2-(3,5-dimethylphenoxy)acetamido]-3-hydroxybicyclo[2.2.2]octan-1-yl}acetamide]
Second: O=C(COc1ccc2c(c1)OCCO2)NC12CCC(NC(=O)COc3ccc(Cl)c(F)c3)(CC1)[C@@H](O)C2 [Compound 758, 2-(4-chloro-3-fluorophenoxy)-N-[(2S)-4-{2-[(2,3-dihydro-1,4-benzodioxin-6-yl)oxy]acetamido}-2-hydroxybicyclo[2.2.2]octan-1-yl]acetamide]
The EC50 of the first is higher: 50 to 250 nM for the first, < 10 nM for the second.

First: O=C(/C=C/c1cccc(Cl)c1)NC12CC(NC(=O)COc3ccc(Cl)c(F)c3)(C1)C2 [Compound 350, (2E)-N-{3-[2-(4-chloro-3-fluorophenoxy)acetamido]bicyclo[1.1.1]pentan-1-yl}-3-(3-chlorophenyl)prop-2-enamide]
Second: Cc1ccc(OCC(=O)NC23CC(NC(=O)COc4ccc(Cl)c(F)c4)(C2)C3)c(F)n1 [Compound 245, 2-(4-chloro-3-fluorophenoxy)-N-(3-{2-[(2-fluoro-6-methylpyridin-3-yl)oxy]acetamido}bicyclo[1.1.1]pentan-1-yl)acetamide]
The EC50 of the first is higher: 50 to 250 nM for the first, 10 to 50 nM for the second.

First: O=C(COc1ccc(Cl)c(F)c1)NC12CC(NS(=O)(=O)CCOc3ccc(F)cc3)(C1)C2 [Compound 489, 2-(4-chloro-3-fluorophenoxy)-N-(3-{[2-(4-fluorophenoxy)ethanesulfonyl]amino}bicyclo[1.1.1]pentan-1-yl)acetamide]
Second: O=C(COc1ccc(Cl)c(F)c1)NC12CC(COc3ccccc3)(C1)C2 [Compound 612, 2-(4-chloro-3-fluorophenoxy)-N-[3-(phenoxymethyl)bicyclo[1.1.1]pentan-1-yl]acetamide]
The EC50 of the first is lower: 500 to 2000 nM for the first, > 2000 nM for the second. The first is the more potent here.

`O=C(COc1ccc(OC(F)(F)F)cc1)NC12CCC(NC(=O)COc3ccc(Cl)cc3)(CC1)[C@@H](O)C2` [Compound 783, 2-(4-chlorophenoxy)-N-[(2S)-2-hydroxy-4-{2-[4-(trifluoromethoxy)phenoxy]acetamido}bicyclo[2.2.2]octan-1-yl]acetamide] and `Cc1ccc(OCC(=O)NC23CCC(NC(=O)COc4ccc(OC(F)(F)F)cc4)(CC2)[C@@H](O)C3)cc1F` [Compound 736, 2-(3-fluoro-4-methylphenoxy)-N-[(3S)-3-hydroxy-4-{2-[4-(trifluoromethoxy)phenoxy]acetamido}bicyclo[2.2.2]octan-1-yl]acetamide] cannot be ordered by EC50: < 10 nM for the first, < 10 nM for the second.

First: O=C(COc1ccc(Cl)c(F)c1)NC12CC(COc3ccc(C(F)F)cn3)(C1)C2 [Compound 613, 2-(4-chloro-3-fluorophenoxy)-N-[3-({[5-(difluoromethyl)pyridin-2-yl]oxy}methyl)bicyclo[1.1.1]pentan-1-yl]acetamide]
Second: O=C(COc1ccc(Cl)c(F)c1)NC12CCC(NC(=O)COc3cnc(C(F)F)cn3)(CC1)[C@@H](O)C2 [Compound 382, 2-(4-chloro-3-fluorophenoxy)-N-[(3S)-4-(2-{[5-(difluoromethyl)pyrazin-2-yl]oxy}acetamido)-3-hydroxybicyclo[2.2.2]octan-1-yl]acetamide]
The EC50 of the first is lower: 500 to 2000 nM for the first, > 2000 nM for the second. The first is the more potent here.

First: O=C(COc1cnc(OC2CCC2)nc1)NC12CCC(NC(=O)COc3ccc(Cl)c(F)c3)(CC1)[C@@H](O)C2 [Compound 636, 2-(4-chloro-3-fluorophenoxy)-N-[(2S)-4-(2-{[2-(cyclobutyloxy)pyrimidin-5-yl]oxy}acetamido)-2-hydroxybicyclo[2.2.2]octan-1-yl]acetamide]
Second: COc1cc(OCC(=O)NC23CCC(NC(=O)COc4ccc(F)c(F)c4)(CC2)[C@@H](O)C3)ccc1F [Compound 756, 2-(3,4-difluorophenoxy)-N-{(2S)-4-[2-(4-fluoro-3-methoxyphenoxy)acetamido]-2-hydroxybicyclo[2.2.2]octan-1-yl}acetamide]
The EC50 of the first is higher: 250 to 500 nM for the first, < 10 nM for the second. The second is the more potent here.

`O=C(COc1ccc(Cl)c(Cl)c1)NC12CC(NC(=O)Cc3ccccn3)(C1)C2` [Compound 447, 2-(3,4-dichlorophenoxy)-N-{3-[2-(pyridin-2-yl)acetamido]bicyclo[1.1.1]pentan-1-yl}acetamide] and `O=C(CC(NC1COC1)c1ccc(Cl)cc1)NC12CCC(NC(=O)COc3ccc(Cl)c(F)c3)(CC1)[C@@H](O)C2` (stereo partly drawn) [Compound 713, N-{(3S)-4-[2-(4-chloro-3-fluorophenoxy)acetamido]-3-hydroxybicyclo[2.2.2]octan-1-yl}-3-(4-chlorophenyl)-3-[(oxetan-3-yl)amino]propanamide] cannot be ordered by EC50: > 2000 nM for the first, > 2000 nM for the second.
